The values below are quoted from earlier work in patent US10702606B2, “Peptide composition” (MENICON CO., LTD., priority 2015, dated 2020).

SMILES strings stand for the structures. Where two headings read alike, the source gives them in different places.

As a reminder, the pKa is the pH at which an ionisable group is half protonated. Take `NCCN` [Ethylenediamine, ethylenediamine]: the pKa by setting is: (25° C., only a pKa of 3.5 or more and less than 7.5 is described) 7.1; (buffering agent, temperature not given) 7.1.
